Data reported in ChEMBL document CHEMBL3872220, “Amphiphilic xanthones as a potent chemical entity of anti-mycobacterial agents with membrane-targeting properties” (Eur J Med Chem, 2016).

Assays:
[1] = system: Mycolicibacterium smegmatis; test: Antimycobacterial activity against Mycobacterium smegmatis MC2 155 assessed as ATP leakage by measuring intracellular ATP at 0.5 times MIC measured at 3 hrs post dose by luciferase reporter gene assay; format: functional, str. MC2 155
[2] = system: Mycolicibacterium smegmatis; test: Antimycobacterial activity against Mycobacterium smegmatis MC2 155 assessed as ATP leakage by measuring intracellular ATP at 0.5 times MIC measured immediatey after addition of compounds by luciferase reporter gene assay; format: functional, str. MC2 155
[3] = system: Mycolicibacterium smegmatis; test: Antimycobacterial activity against Mycobacterium smegmatis MC2 155 assessed as ATP leakage by measuring intracellular ATP at MIC measured at 3 hrs post dose by luciferase reporter gene assay; format: functional, str. MC2 155
[4] = Cytotoxicity against human corneal fibroblasts assessed as increase in LDH level measured after 4 hrs by Cytotox-one […] assay; format: toxicity, Corneal fibroblast
[5] = system: Mycolicibacterium smegmatis; test: Antimycobacterial activity against Mycobacterium smegmatis MC2 155 assessed as ATP leakage by measuring intracellular ATP at 2 times MIC measured at 24 hrs post dose by luciferase reporter gene assay; format: functional, str. MC2 155
[6] = system: Mycolicibacterium smegmatis; test: Antimycobacterial activity against Mycobacterium smegmatis MC2 155 assessed as ATP leakage by measuring extracellular ATP at 2 times MIC measured immediatey after addition of compounds by luciferase reporter gene assay; format: functional, str. MC2 155
[7] = system: Mycolicibacterium smegmatis; test: Antimycobacterial activity against Mycobacterium smegmatis MC2 155 assessed as ATP leakage by measuring extracellular ATP at 0.5 times MIC measured at 1 hr of post dose by luciferase reporter gene assay; format: functional, str. MC2 155
[8] = system: Mycolicibacterium smegmatis; test: Antimycobacterial activity against Mycobacterium smegmatis MC2 155 assessed as ATP leakage by measuring extracellular ATP at 2 times MIC measured at 1 hr of post dose by luciferase reporter gene assay; format: functional, str. MC2 155
[9] = system: Mycolicibacterium smegmatis; test: Antimycobacterial activity against Mycobacterium smegmatis MC2 155 assessed as ATP leakage by measuring intracellular ATP at MIC measured at 1 hr of post dose by luciferase reporter gene assay; format: functional, str. MC2 155
[10] = system: Mycolicibacterium smegmatis; test: Antimycobacterial activity against Mycobacterium smegmatis MC2 155 assessed as ATP leakage by measuring extracellular ATP at 2 times MIC measured at 24 hrs post dose by luciferase reporter gene assay; format: functional, str. MC2 155
[11] = system: Mycolicibacterium smegmatis; test: Antimycobacterial activity against Mycobacterium smegmatis MC2 155 assessed as ATP leakage by measuring extracellular ATP at 0.5 times MIC measured at 9 hrs post dose by luciferase reporter gene assay; format: functional, str. MC2 155
[12] = system: Mycolicibacterium smegmatis; test: Antimycobacterial activity against Mycobacterium smegmatis MC2 155 assessed as ATP leakage by measuring intracellular ATP at MIC measured immediatey after addition of compounds by luciferase reporter gene assay; format: functional, str. MC2 155
CYP2C19 = CYP2C19 (Homo sapiens, UniProt P33261); test: Inhibition of CYP2C19 in human liver microsomes at 10 uM using omeprazole as substrate preincubated for 5 min followed by NADPH addition measured after 10 mins by LC-MS/MS method relative to control; format: ADME; conditions: probe omeprazole
[13] = system: Mycolicibacterium smegmatis; test: Antimycobacterial activity against Mycobacterium smegmatis MC2 155 assessed as ATP leakage by measuring extracellular ATP at 2 times MIC measured at 9 hrs post dose by luciferase reporter gene assay; format: functional, str. MC2 155
[14] = system: Mycolicibacterium smegmatis; test: Antimycobacterial activity against Mycobacterium smegmatis MC2 155 assessed as ATP leakage by measuring intracellular ATP at MIC measured at 24 hrs post dose by luciferase reporter gene assay; format: functional, str. MC2 155
[15] = system: Mycolicibacterium smegmatis; test: Antimycobacterial activity against Mycobacterium smegmatis MC2 155 assessed as ATP leakage by measuring intracellular ATP at 2 times MIC measured at 6 hrs post dose by luciferase reporter gene assay; format: functional, str. MC2 155
[16] = system: Mycolicibacterium smegmatis; test: Antimycobacterial activity against Mycobacterium smegmatis MC2 155 assessed as ATP leakage by measuring intracellular ATP at 0.5 times MIC measured at 24 hrs post dose by luciferase reporter gene assay; format: functional, str. MC2 155
[17] = system: Mycolicibacterium smegmatis; test: Antimycobacterial activity against Mycobacterium smegmatis MC2 155 assessed as ATP leakage by measuring intracellular ATP at 2 times MIC measured immediatey after addition of compounds by luciferase reporter gene assay; format: functional, str. MC2 155
[18] = system: Mycolicibacterium smegmatis; test: Antimycobacterial activity against Mycobacterium smegmatis MC2 155 assessed as ATP leakage by measuring extracellular ATP at 2 times MIC measured at 6 hrs post dose by luciferase reporter gene assay; format: functional, str. MC2 155
[19] = system: Mycolicibacterium smegmatis; test: Antimycobacterial activity against Mycobacterium smegmatis MC2 155 assessed as ATP leakage by measuring extracellular ATP at MIC measured at 1 hr of post dose by luciferase reporter gene assay; format: functional, str. MC2 155
[20] = system: Mycolicibacterium smegmatis; test: Antimycobacterial activity against Mycobacterium smegmatis MC2 155 assessed as ATP leakage by measuring extracellular ATP at MIC measured immediatey after addition of compounds by luciferase reporter gene assay; format: functional, str. MC2 155
[21] = system: Mycolicibacterium smegmatis; test: Antimycobacterial activity against Mycobacterium smegmatis MC2 155 assessed as ATP leakage by measuring extracellular ATP at MIC measured at 24 hrs post dose by luciferase reporter gene assay; format: functional, str. MC2 155
[22] = Cytotoxicity against human corneal fibroblasts assessed as reduction in ATP level measured after 4 hrs by Celltiter-Glo luminescent assay; format: toxicity, Corneal fibroblast
[23] = system: Mycolicibacterium smegmatis; test: Antimycobacterial activity against Mycobacterium smegmatis MC2 155 assessed as ATP leakage by measuring intracellular ATP at 0.5 times MIC measured at 9 hrs post dose by luciferase reporter gene assay; format: functional, str. MC2 155
[24] = system: Mycolicibacterium smegmatis; test: Antimycobacterial activity against Mycobacterium smegmatis MC2 155 assessed as ATP leakage by measuring extracellular ATP at 4 times MIC measured at 1 hr of post dose by luciferase reporter gene assay; format: functional, str. MC2 155
[25] = system: Mycolicibacterium smegmatis; test: Antimycobacterial activity against Mycobacterium smegmatis MC2 155 assessed as ATP leakage by measuring intracellular ATP at 4 times MIC measured at 9 hrs post dose by luciferase reporter gene assay; format: functional, str. MC2 155
[26] = Half life in rat liver microsomes at 1 uM preincubated for 5 mins followed by NADPH addition measured by LC-MS/MS method; format: ADME
[27] = system: Mycolicibacterium smegmatis; test: Antimycobacterial activity against Mycobacterium smegmatis MC2 155 assessed as ATP leakage by measuring intracellular ATP at 0.5 times MIC measured at 1 hr of post dose by luciferase reporter gene assay; format: functional, str. MC2 155
[28] = system: Mycolicibacterium smegmatis; test: Antimycobacterial activity against Mycobacterium smegmatis MC2 155 assessed as ATP leakage by measuring extracellular ATP at 0.5 times MIC measured at 6 hrs post dose by luciferase reporter gene assay; format: functional, str. MC2 155
[29] = system: Mycolicibacterium smegmatis; test: Antimycobacterial activity against Mycobacterium smegmatis MC2 155 assessed as ATP leakage by measuring intracellular ATP at MIC measured at 9 hrs post dose by luciferase reporter gene assay; format: functional, str. MC2 155
[30] = system: Mycolicibacterium smegmatis; test: Antimycobacterial activity against Mycobacterium smegmatis MC2 155 assessed as ATP leakage by measuring extracellular ATP at MIC measured at 3 hrs post dose by luciferase reporter gene assay; format: functional, str. MC2 155
[31] = system: Mycolicibacterium smegmatis; test: Antimycobacterial activity against Mycobacterium smegmatis MC2 155 assessed as ATP leakage by measuring extracellular ATP at 0.5 times MIC measured at 3 hrs post dose by luciferase reporter gene assay; format: functional, str. MC2 155
[32] = system: Mycolicibacterium smegmatis; test: Antimycobacterial activity against Mycobacterium smegmatis MC2 155 assessed as ATP leakage by measuring intracellular ATP at 2 times MIC measured at 9 hrs post dose by luciferase reporter gene assay; format: functional, str. MC2 155
[33] = system: Mycolicibacterium smegmatis; test: Antimycobacterial activity against Mycobacterium smegmatis MC2 155 assessed as ATP leakage by measuring intracellular ATP at 2 times MIC measured at 1 hr of post dose by luciferase reporter gene assay; format: functional, str. MC2 155
[34] = Drug metabolism in rat liver microsomes at 1 uM preincubated for 5 mins followed by NADPH addition measured up to 30 mins by LC-MS/MS method; format: ADME; conditions: read-out: Drug metabolism

Chain of CYP2C19 (P33261 whole entry): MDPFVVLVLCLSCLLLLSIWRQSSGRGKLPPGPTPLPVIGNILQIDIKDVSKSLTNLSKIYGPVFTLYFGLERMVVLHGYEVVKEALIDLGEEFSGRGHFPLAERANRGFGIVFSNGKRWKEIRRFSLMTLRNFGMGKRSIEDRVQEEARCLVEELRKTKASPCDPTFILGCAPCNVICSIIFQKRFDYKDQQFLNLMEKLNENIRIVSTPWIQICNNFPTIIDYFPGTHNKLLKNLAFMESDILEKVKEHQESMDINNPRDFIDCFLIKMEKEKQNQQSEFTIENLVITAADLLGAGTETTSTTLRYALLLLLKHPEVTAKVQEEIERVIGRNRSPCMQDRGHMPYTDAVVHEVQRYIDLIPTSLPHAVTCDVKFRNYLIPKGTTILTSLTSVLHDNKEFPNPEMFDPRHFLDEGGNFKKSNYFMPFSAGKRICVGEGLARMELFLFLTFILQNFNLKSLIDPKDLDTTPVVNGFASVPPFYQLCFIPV

Structure (SMILES) | Activity [1] | Activity [2] | Activity [3] | CC50 at 4 h [4] | Activity [5] | Activity [6] | Activity [7] | Activity [8] | Activity [9] | Activity [10] | Activity [11] | Activity [12] | inhibition at 10 min, 10 µM (CYP2C19) | Activity [13] | Activity [14] | Activity [15] | Activity [16] | Activity [17] | Activity [18] | Activity [19] | further results
CCCN(CCC)CCCCOc1cc2oc3cc(OCCCCN(CCC)CCC)c(OC)c(CC=C(C)C)c3c(=O)c2c(O)c1CC=C(C)C | 61% | 100% | 8.2% | > 150 µM | 4.7% | 4% | 24.7% | 97.2% | 11.5% | 95.3% | 33.5% | 97.7% | 19.2% | 96.1% | 11.9% | 3.9% | 46.4% | 96% | 96.1% | 88.5% | Activity [20]: 2.3%; Activity [21]: 88.1%; CC50 at 4 h [22]: 108 µM; Activity [23]: 66.5%; Activity [24]: 94.3%; Activity [25]: 15.7%; half-life at 1 µM [26]: > 30 min; Activity [27]: 75.3%; Activity [28]: 30.6%; Activity [29]: 10.6%; Activity [30]: 91.8%; Activity [31]: 39%; Activity [32]: 3.9%; Activity [33]: 2.8%; metabolised at 0.5 h, 1 µM [34]: 10%
CCN(CC)CCCCOc1cc2oc3cc(OCCCCN(CC)CC)c(OC)c(CC=C(C)C)c3c(=O)c2c(O)c1CC=C(C)C | 83.6% | 100% | 12% | > 150 µM | 13.3% | 1.3% | 6.8% | 95.6% | 57.9% | 86.7% | 23.2% | 99.2% | 3% | 96.6% | 55.6% | 3.2% | 33.3% | 98.7% | 96.8% | 42.1% | Activity [20]: 0.8%; Activity [21]: 44.4%; CC50 at 4 h [22]: 19.7 µM; Activity [23]: 76.8%; Activity [24]: 97.4%; Activity [25]: 2.7%; half-life at 1 µM [26]: > 30 min; Activity [27]: 93.2%; Activity [28]: 12.2%; Activity [29]: 17.6%; Activity [30]: 88%; Activity [31]: 16.4%; Activity [32]: 3.4%; Activity [33]: 4.4%; metabolised at 0.5 h, 1 µM [34]: 12.1%
COc1c(OCCCCN2CCOCC2)cc2oc3cc(OCCCCN4CCOCC4)c(CC=C(C)C)c(O)c3c(=O)c2c1CC=C(C)C | 94.1% | 100% | 55.3% | > 150 µM | 5.3% | 3% | 2.2% | 30.4% | 93.5% | 94.7% | 26.5% | 97.7% | 17% | 84.4% | 11.3% | 23.3% | 52.5% | 97% | 76.7% | 6.5% | Activity [20]: 2.3%; Activity [21]: 88.7%; CC50 at 4 h [22]: > 150 µM; Activity [23]: 73.5%; Activity [24]: 42.7%; Activity [25]: 7.9%; half-life at 1 µM [26]: > 30 min; Activity [27]: 97.8%; Activity [28]: 13.2%; Activity [29]: 41.4%; Activity [30]: 44.7%; Activity [31]: 5.9%; Activity [32]: 15.6%; Activity [33]: 69.6%; metabolised at 0.5 h, 1 µM [34]: 0%
